From ChEMBL document CHEMBL3885881, “DrugMatrix”

Species: Rattus norvegicus
Assay: DrugMatrix - Regimen: Daily Repeat
Format: toxicity, organism-based, Sprague-Dawley
Parameters: regimen Daily Repeat, gender Male, age 6-8 weeks
Conditions: in vivo, po, route oral GAVAGE, vehicle 100 % WATER; for ABSOLUTE LYMPHOCYTE / ABSOLUTE MONOCYTE / ABSOLUTE SEGMENTED NEUTROPHIL / BASOPHIL / EOSINOPHIL / ERYTHROCYTE COUNT / HEMATOCRIT / LEUKOCYTE COUNT / LYMPHOCYTE / MEAN CORPUSCULAR HEMOGLOBIN / MEAN CORPUSCULAR HEMOGLOBIN CONCENTRATION / MEAN CORPUSCULAR VOLUME / MONOCYTE / NEUTROPHIL / NUCLEATED RED BLOOD CELLS / PLATELET COUNT / ABSOLUTE BASOPHIL / ABSOLUTE EOSINOPHIL: tissue Blood; for ALANINE AMINOTRANSFERASE / ALBUMIN / ALKALINE PHOSPHATASE / ASPARTATE AMINOTRANSFERASE / BLOOD UREA NITROGEN / CARBON DIOXIDE / CHLORIDE / CHOLESTEROL / CREATINE PHOSPHOKINASE / CREATININE / GLUCOSE / LACTATE DEHYDROGENASE / LIPASE / PHOSPHORUS / POTASSIUM / SODIUM / TOTAL BILIRUBIN / TOTAL PROTEIN / URIC ACID: tissue Plasma
[1] = 850 mg/kg, 72 h, dose level M1, time 3 day
[2] = 850 mg/kg, 120 h, dose level M1, time 5 day
[3] = 1500 mg/kg, 72 h, dose level High, time 3 day
[4] = 1500 mg/kg, 120 h, dose level High, time 5 day

## CCCC(CCC)C(=O)O [VALPROIC ACID]
[1]
  ABSOLUTE LYMPHOCYTE: 8722.33 CELLS/uL
  ABSOLUTE MONOCYTE: 267.67 CELLS/uL
  ABSOLUTE SEGMENTED NEUTROPHIL: 836 CELLS/uL
  BASOPHIL: 0%
  EOSINOPHIL: 0.33%
  ERYTHROCYTE COUNT: 5.4 x10E6/uL
  HEMATOCRIT: 35.27%
  LEUKOCYTE COUNT: 9.87 x10E3/uL
  LYMPHOCYTE: 89%
  MEAN CORPUSCULAR HEMOGLOBIN: 25.37 pg
  MEAN CORPUSCULAR HEMOGLOBIN CONCENTRATION: 38.73 G/DL
  MEAN CORPUSCULAR VOLUME: 65.5 fL
  MONOCYTE: 2.67%
  NEUTROPHIL: 8%
  NUCLEATED RED BLOOD CELLS: 0 /100WBC
  PLATELET COUNT: 1024 x10E3/uL
  ALANINE AMINOTRANSFERASE: 50 u/L
  ALBUMIN: 3.97 G/DL
  ALKALINE PHOSPHATASE: 196.67 u/L
  ASPARTATE AMINOTRANSFERASE: 87.67 u/L
  BLOOD UREA NITROGEN: 13 mg/dL
  CARBON DIOXIDE: 29 mmol/L
  CHLORIDE: 99.33 MEQ/L
  CHOLESTEROL: 57.67 mg/dL
  CREATINE PHOSPHOKINASE: 134.67 u/L
  CREATININE: 0.11 mg/dL
  GLUCOSE: 145.67 mg/dL
  LACTATE DEHYDROGENASE: 142.67 u/L
  LIPASE: 9.33 u/L
  PHOSPHORUS: 11.37 mg/dL
  POTASSIUM: 6.32 MEQ/L
  SODIUM: 143.5 MEQ/L
  TOTAL BILIRUBIN: 0.23 mg/dL
  TOTAL PROTEIN: 5.33 G/DL
  URIC ACID: 1.57 mg/dL
[2]
  ABSOLUTE BASOPHIL: 0 CELLS/uL
  ABSOLUTE EOSINOPHIL: 50 CELLS/uL
  ABSOLUTE LYMPHOCYTE: 6795.67 CELLS/uL
  ABSOLUTE MONOCYTE: 121.33 CELLS/uL
  ABSOLUTE SEGMENTED NEUTROPHIL: 433 CELLS/uL
  BASOPHIL: 0%
  EOSINOPHIL: 0.67%
  ERYTHROCYTE COUNT: 5.21 x10E6/uL
  HEMATOCRIT: 33.77%
  LEUKOCYTE COUNT: 7.4 x10E3/uL
  LYMPHOCYTE: 92%
  MEAN CORPUSCULAR HEMOGLOBIN: 24.63 pg
  MEAN CORPUSCULAR HEMOGLOBIN CONCENTRATION: 38 G/DL
  MEAN CORPUSCULAR VOLUME: 64.83 fL
  MONOCYTE: 1.67%
  NEUTROPHIL: 5.67%
  NUCLEATED RED BLOOD CELLS: 0 /100WBC
  PLATELET COUNT: 851.33 x10E3/uL
  ALANINE AMINOTRANSFERASE: 58.33 u/L
  ALBUMIN: 3.83 G/DL
  ALKALINE PHOSPHATASE: 272 u/L
  ASPARTATE AMINOTRANSFERASE: 99 u/L
  BLOOD UREA NITROGEN: 12.67 mg/dL
  CARBON DIOXIDE: 31.67 mmol/L
  CHLORIDE: 100 MEQ/L
  CHOLESTEROL: 60 mg/dL
  CREATINE PHOSPHOKINASE: 402 u/L
  CREATININE: 0.28 mg/dL
  GLUCOSE: 139.67 mg/dL
  LACTATE DEHYDROGENASE: 186.33 u/L
  LIPASE: 11 u/L
  PHOSPHORUS: 11.17 mg/dL
  POTASSIUM: 6.05 MEQ/L
  SODIUM: 143.73 MEQ/L
  TOTAL BILIRUBIN: 0.2 mg/dL
  TOTAL PROTEIN: 5.83 G/DL
  URIC ACID: 0.5 mg/dL
[3]
  ABSOLUTE BASOPHIL: 0 CELLS/uL
  ABSOLUTE EOSINOPHIL: 0 CELLS/uL
  ABSOLUTE LYMPHOCYTE: 4940.67 CELLS/uL
  ABSOLUTE MONOCYTE: 35.67 CELLS/uL
  ABSOLUTE SEGMENTED NEUTROPHIL: 257 CELLS/uL
  BASOPHIL: 0%
  EOSINOPHIL: 0%
  ERYTHROCYTE COUNT: 5.94 x10E6/uL
  HEMATOCRIT: 37.3%
  LEUKOCYTE COUNT: 5.23 x10E3/uL
  LYMPHOCYTE: 94.33%
  MEAN CORPUSCULAR HEMOGLOBIN: 23.37 pg
  MEAN CORPUSCULAR HEMOGLOBIN CONCENTRATION: 37.17 G/DL
  MEAN CORPUSCULAR VOLUME: 62.83 fL
  MONOCYTE: 0.67%
  NEUTROPHIL: 5%
  NUCLEATED RED BLOOD CELLS: 0 /100WBC
  PLATELET COUNT: 901.67 x10E3/uL
  ALANINE AMINOTRANSFERASE: 32.33 u/L
  ALBUMIN: 4.5 G/DL
  ALKALINE PHOSPHATASE: 225.67 u/L
  ASPARTATE AMINOTRANSFERASE: 77.67 u/L
  BLOOD UREA NITROGEN: 10.67 mg/dL
  CARBON DIOXIDE: 26 mmol/L
  CHLORIDE: 104 MEQ/L
  CHOLESTEROL: 42.67 mg/dL
  CREATINE PHOSPHOKINASE: 120 u/L
  CREATININE: 0.22 mg/dL
  GLUCOSE: 138 mg/dL
  LACTATE DEHYDROGENASE: 112 u/L
  LIPASE: 7.67 u/L
  PHOSPHORUS: 14.3 mg/dL
  POTASSIUM: 6.21 MEQ/L
  SODIUM: 146.87 MEQ/L
  TOTAL BILIRUBIN: 0.1 mg/dL
  TOTAL PROTEIN: 5.87 G/DL
  URIC ACID: 1.7 mg/dL
[4]
  ABSOLUTE BASOPHIL: 0 CELLS/uL
  ABSOLUTE EOSINOPHIL: 7.25 CELLS/uL
  ABSOLUTE LYMPHOCYTE: 3923.75 CELLS/uL
  ABSOLUTE MONOCYTE: 124 CELLS/uL
  ABSOLUTE SEGMENTED NEUTROPHIL: 320 CELLS/uL
  BASOPHIL: 0%
  EOSINOPHIL: 0.25%
  ERYTHROCYTE COUNT: 6.03 x10E6/uL
  HEMATOCRIT: 36.38%
  LEUKOCYTE COUNT: 4.38 x10E3/uL
  LYMPHOCYTE: 91%
  MEAN CORPUSCULAR HEMOGLOBIN: 22.62 pg
  MEAN CORPUSCULAR HEMOGLOBIN CONCENTRATION: 37.5 G/DL
  MEAN CORPUSCULAR VOLUME: 60.35 fL
  MONOCYTE: 2.25%
  NEUTROPHIL: 6.5%
  NUCLEATED RED BLOOD CELLS: 0 /100WBC
  PLATELET COUNT: 549.5 x10E3/uL
  ALANINE AMINOTRANSFERASE: 52.5 u/L
  ALBUMIN: 4.57 G/DL
  ALKALINE PHOSPHATASE: 204.25 u/L
  ASPARTATE AMINOTRANSFERASE: 132 u/L
  BLOOD UREA NITROGEN: 15.75 mg/dL
  CARBON DIOXIDE: 28 mmol/L
  CHLORIDE: 105.75 MEQ/L
  CHOLESTEROL: 53.5 mg/dL
  CREATINE PHOSPHOKINASE: 1153.75 u/L
  CREATININE: 0.25 mg/dL
  GLUCOSE: 150.25 mg/dL
  LACTATE DEHYDROGENASE: 237.5 u/L
  LIPASE: 8.25 u/L
  PHOSPHORUS: 13.5 mg/dL
  POTASSIUM: 6.62 MEQ/L
  SODIUM: 146.95 MEQ/L
  TOTAL BILIRUBIN: 0.15 mg/dL
  TOTAL PROTEIN: 5.9 G/DL
  URIC ACID: 1.88 mg/dL
